Laboratory results as given in paper PMC7914367, “Dual-ligand supramolecular nanofibers inspired by the renin-angiotensin system for the targeting and synergistic therapy of myocardial infarction” (Theranostics, 2021).
Peptide text beside a SMILES is read from it. * marks the point of attachment. X1 = CN1/C(=C/C=C/C=C/C2=[N+](CCCCCC(=O)*)c3ccc4ccccc4c3C2(C)C)C(C)(C)c2c1ccc1ccccc21

Assays:
[1] = system: infarcted heart; design: species or system C57BL/6 mice; settings: mouse, in vivo
Experimental: ^Cy5.5TDCNfs, ^Cy5.5SAA1-7, and ^Cy5.5Ang1-7 were injected intravenously into the mice via tail vein at a dose of 0.2 mg. The images were captured at the prefixed time. Next, the mice were sacrificed to harvest their hearts and major organs. The samples were imaged at an excitation wavelength of 630 nm and an emission wavelength of 700 nm using an in vivo imaging system (FX PRO, BRUKER, Germany). The images were analyzed using the BRUKER Molecular Imaging Software. The targeting ability of compounds was defined by HTI = heart fluorescence emission/liver fluorescence emission.
Frozen sections were prepared in vivo, as described previously. For drugs distribution, near-infrared laser imager (GE Amersham Typhoon, Sweden) was used to capture full cross section of hearts. For co-localization experiments, the mice hearts were dissected 24 h post-injection of drugs. Anti-AT1R primary antibody (1:200 dilution) was used as the primary antibody. For fibrosis investigation, the frozen sections were incubated with primary antibodies against α-SMA (1:400 dilution). […]
manufacturer ’s protocol. […] The TUNEL positive cells were observed by the fluorescence microscope (λexc = 488 nm for TUNEL, λexc = 405 […]
(§1) Intracellular ROS was quantified with dihydroethidium (DHE). […] Intracellular ROS were detected by the fluorescence microscope (λexc = 532 nm for DHE, λexc = 405 nm for Hoechst 33342). […]

[2] = system: MI mouse model; assay: In vivo mechanism: caspase-3 IHC, α-SMA immunofluorescence, type I collagen, TGF-β1, serum cytokines; design: species or system C57BL/6 mice; settings: MI mice, n = 5
Experimental: Frozen sections were prepared in vivo, as described previously. For drugs distribution, near-infrared laser imager (GE Amersham Typhoon, Sweden) was used to capture full cross section of hearts. For co-localization experiments, the mice hearts were dissected 24 h post-injection of drugs. Anti-AT1R primary antibody (1:200 dilution) was used as the primary antibody. For fibrosis investigation, the frozen sections were incubated with primary antibodies against α-SMA (1:400 dilution). The staining signals were visualized using FITC-labeled Goat Anti-Rabbit IgG (1:200 dilution) or Cy3-labeled Goat Anti-Rabbit IgG (1:200 dilution). The sections were counterstained with DAPI and examined under a laser confocal scanning microscope (Leica TCS SP8, Germany).
The heart tissues were fixed in 4% paraformaldehyde, dehydrated in ethanol, cleared in xylene, and embedded in paraffin. The samples were then cut into 6 μm sections on a microtome and deparaffinized. The sections were blocked by incubating with 1% BSA at room temperature for 30 min and then incubated overnight with anti-cleaved caspase-3 (1:700 dilution), anti-AT1R (1:100 dilution), anti-Collagen I (1:200 dilution) at 4 °C. Next, the sections were washed and incubated with secondary antibodies (1:500 dilution) at room temperature. The tissue sections were incubated with diaminobenzidine and counterstained with hematoxylin, dehydrated, and mounted before viewing under a microscope.
(§2) The serum and CM were collected at the indicated time points from the different groups of mice. The levels of TNF-α, IL-6, ALT, Cre, and TGF-β1 were measured using ELISA kits according to the manufacturer's protocol. The absorbance was measured at 450 nm using a microplate reader.

[3] = system: NRCFs; assay: Conditioned medium interference experiments (TGF-β1 in CM, α-SMA in NRCFs); assay type: cell-based, rat; settings: NRCFs cultured 24 h with conditioned medium of pretreated OGD NRCMs, immunofluorescence, n = 3
Experimental: Next, the cells were blocked by incubating with goat serum for 30 min and incubated with primary antibodies overnight at 4 °C. The primary antibodies used here included anti-AT1R (1:200 dilution), anti-cTNT (1:500 dilution), anti-P65 (1:800 dilution), and anti‐α-SMA (1:400 dilution). The cells were incubated with FITC-labeled Goat Anti-Rabbit IgG (1:200 dilution) or Cy3-labeled Goat Anti-Mouse IgG (1:200 dilution) for 2 h at room temperature. The cells were counterstained with DAPI and imaged using a fluorescence microscope (Leica Dmi8, Germany).
CM from untreated or compound-treated cells were produced as follows. NRCMs were seeded in 35 mm culture dishes at 1 × 10^6 cells per well and incubated in growth medium containing different compounds or in media devoid of compounds for 12 h. Next, the media were replaced with serum-free medium, and the cells were cultured under hypoxia for 6 h. The CM was collected and centrifuged to culture NRCFs after a 12 h starvation period. Immunofluorescence of α-SMA was analyzed as per protocol after 24 h.
as §2

[4] = system: p-AKT, Bax/Bcl-2, cleaved caspase-3; assay: Western blot of apoptosis-related proteins in OGD NRCMs; assay type: cell-based, rat; settings: vs OGD group, n = 3
Experimental: AKT, p-AKT, Bax, Bcl-2, cleaved caspase-3, P65, TGF-β1, Histone3, AT1R, GAPDH were quantified by western blot analysis. Protein concentration was determined using the bicinchoninic acid (BCA) method. SDS-PAGE was conducted to separate the proteins in each sample (30-50 µg of protein per lane), which were subsequently transferred to a PVDF membrane. The membranes were treated with blocking buffer for 2 h at room temperature and then incubated overnight with primary antibodies at 4 °C. The primary antibodies used included anti-Phospho-AKT (1:1000 dilution), anti-AKT (1:1000 dilution), anti-caspase-3 (1:1000 dilution), anti-Bcl-2 (1:100 dilution), anti-Bax (1:1000 dilution), anti-P65 (1:800 dilution), anti-TGF-β1 (1:1000 dilution), anti-Histone 3 (1:1000 dilution) and anti-AGTR1 (1:1000 dilution). The results were normalized by comparison to parallel western blots for glyceraldehyde 3-phosphate dehydrogenase (GAPDH, 1:8000 dilution). Optical density was measured using an image processing analysis program.

[5] = system: NRCMs; assay: TUNEL staining of OGD NRCMs; assay type: cell-based, rat; settings: 10 μM, 2-3 h, OGD group 26.70%, n = 3
[6] = system: MI mouse model; assay: Echocardiography post-MI; assay type: in vivo, C57BL/6 mice; settings: MI mice, 4th week, tail vein every 2 days (TDCNfs 1084.16, T+A 328.96+576, Tel 328.96, Ang1-7 576 μg/kg); MI group approx 16%; n = 5
Experimental: (§3) Adult male C57BL/6 mice (20-30 g, 8-10 week) were purchased from the laboratory animal center of Southern Medical University, China. The protocols were approved according to the Zhujiang Hospital of Southern Medical University animal care and use committee guidelines, which conform to the guide for the care and use of laboratory animals published by the US National Institutes of Health (8th edition, 2011). […] Next, 100 µL of different drugs were administered intravenously through tail vein injection every 2 days for 3 weeks, while the mice in the Sham and MI groups were treated with an equal volume of PBS.
Twenty-eight days after surgery, the mice were anesthetized through the inhalation of isoflurane (1-1.5%) in O2 and echocardiographic examination was performed using a Vevo 2100 System equipped with a 30 MHz transducer (FUJIFILM Visual Sonics, Canada). The LVEDD, LVESD, LVEFs, and LVFS were measured. All measurements were repeated for at least three consecutive pulsation cycles and the data were averaged for statistical analysis. […]
(§4) manufacturer ’s protocol. Cells were then stained with DAPI. The TUNEL positive cells were observed by the fluorescence microscope (λexc = 488 nm for TUNEL, λexc = 405 […]
as §1

[7] = system: NRCMs; assay: Intracellular ROS with DHE probe; assay type: cell-based, rat; settings: OGD NRCMs, 10 μM; OGD group 5.72-fold; n = 3
Experimental: The cells were counterstained with DAPI and were observed under a fluorescence microscope (details in Supporting Information). […]
as §4
Intracellular ROS was quantified with dihydroethidium (DHE). After incubated with different treatments under OGD condition, NRCMs were then cultured with DMEM medium containing […] of DHE for 30 min at 37 ℃ and then wash ed twice with PBS. Nucleuses of NRCMs were dyed by Hoechst 33342 stain solution for 30 min at 37 °C. Intracellular ROS were detected by the fluorescence microscope (λexc = 532 nm for DHE, λexc = 405 nm for Hoechst 33342).
Adult male C57BL/6 mice (20-30g, 8-10 weeks old) were purchased from the laboratory animal center of Southern Medical University. For the MI model, mice were subjected to permanent l eft anterior descending (LAD) ligation as described previously. In brief, the animals were anesthetized using 1.5% sodium pentobarbital (50 mg/kg) through intraperitoneal i njection, and mice were ventilated with a rodent ventilator subsequently. We exposed mice hearts by the fourth intercostal space incision and a subsequent pericardium removal. The LAD was ligated using an 8-0-prolene suture permanently to perform MI generation. […]

[8] = system: MI mouse model; assay: Masson's trichrome staining, infarct size; assay type: in vivo, C57BL/6 mice; settings: MI mice, 4 weeks, collagen area/LV area, MI group 36.60%, vehicle 1219.84 μg/kg, n = 5
Experimental: as §3
The mice were sacrificed at 4 weeks after the induction of MI, and hearts and major organs were harvested and fixed in 4% paraformaldehyde overnight and embedded in paraffin. The hearts were sectioned to 5 µm along the short axis transversely across the infarct zone. The major organs were sectioned to 5 µm along the short axis. Following deparaffinization and dehydration, the samples underwent H&E and Masson's trichrome staining. The sections were observed under a microscope to evaluate the therapeutic effect and safety of the drugs. The collagen and LV areas were measured using the Image-Pro Plus software (version 6.0; Media Cybernetics, Silver Spring, MD, USA). Infarct size (%) was calculated as the ratio of the collagen area to the LV area.

overlapping signals with AT1R in infarct zone compared with Cy5.5TDCNfs group [1] | Compound | α-SMA expression in the non-infarcted area ([2]; 4 weeks post-treatment, immunofluorescence) | caspase-3 expression in infarct border zone ([2]; immunohistochemistry) | reduction of α-SMA levels in NRCFs compared to the OGD group [3] [%] | decrease of Bax/Bcl-2 value [4] [%] | increase of p-AKT expression [4] | TUNEL-positive NRCMs [5] [%] | left ventricular ejection fractions (LVEFs) [6] [%] | fluorescence intensity of superoxide anion (DHE) compared to the control group [7] [fold] | infarct size [8] [%]
significantly lower | CC[C@H](C)[C@H](NC(=O)[C@H](Cc1ccc(O)cc1)NC(=O)[C@@H](NC(=O)[C@H](CCCNC(=N)N)NC(=O)[C@H](CC(=O)O)NC(=O)CNC(=O)CCCCC[N+]1=C(/C=C/C=C/C=C2/N(C)c3ccc4ccccc4c3C2(C)C)C(C)(C)c2c1ccc1ccccc21)C(C)C)C(=O)N[C@@H](Cc1c[nH]cn1)C(=O)N1CCC[C@H]1C(=O)O [Cy5.5Ang1-7] (X1-GDRVYIHP-OH) |  |  |  |  |  |  |  |  | 
 | CCCc1nc2c(C)cc(-c3nc4ccccc4n3C)cc2n1Cc1ccc(-c2ccccc2C(=O)O)cc1 [Tel, telmisartan] | inhibited to a certain extent | reduced moderately | 20.48 | 76.3 | more than 10 fold | 17.62 | 29.54 | 3.23 | 25.80
